Measurements reported in patent US10246712B2, “Genetic or pharmacological reduction of PERK enhances cortical- and hippocampus-dependent cognitive function” (Carmel-Haifa University Economic Corp. Ltd, priority 2015, dated 2019).

Assays:
PERK [1] = target: T1, PERK (Rattus norvegicus, UniProt Q9Z1Z1); assay type: in vivo; conditions: 0.1% saccharin; 1 μl 100 nM into IC 20 min prior to novel taste; test day1; n=8
T1 construct: the PERK shRNA lentivirus was stereotacticaly injected to the IC of adult rats; from tissue; host or cells: insular cortex of adult male Wistar Hola rats, in vivo
T1 sequence (Q9Z1Z1 28-1108): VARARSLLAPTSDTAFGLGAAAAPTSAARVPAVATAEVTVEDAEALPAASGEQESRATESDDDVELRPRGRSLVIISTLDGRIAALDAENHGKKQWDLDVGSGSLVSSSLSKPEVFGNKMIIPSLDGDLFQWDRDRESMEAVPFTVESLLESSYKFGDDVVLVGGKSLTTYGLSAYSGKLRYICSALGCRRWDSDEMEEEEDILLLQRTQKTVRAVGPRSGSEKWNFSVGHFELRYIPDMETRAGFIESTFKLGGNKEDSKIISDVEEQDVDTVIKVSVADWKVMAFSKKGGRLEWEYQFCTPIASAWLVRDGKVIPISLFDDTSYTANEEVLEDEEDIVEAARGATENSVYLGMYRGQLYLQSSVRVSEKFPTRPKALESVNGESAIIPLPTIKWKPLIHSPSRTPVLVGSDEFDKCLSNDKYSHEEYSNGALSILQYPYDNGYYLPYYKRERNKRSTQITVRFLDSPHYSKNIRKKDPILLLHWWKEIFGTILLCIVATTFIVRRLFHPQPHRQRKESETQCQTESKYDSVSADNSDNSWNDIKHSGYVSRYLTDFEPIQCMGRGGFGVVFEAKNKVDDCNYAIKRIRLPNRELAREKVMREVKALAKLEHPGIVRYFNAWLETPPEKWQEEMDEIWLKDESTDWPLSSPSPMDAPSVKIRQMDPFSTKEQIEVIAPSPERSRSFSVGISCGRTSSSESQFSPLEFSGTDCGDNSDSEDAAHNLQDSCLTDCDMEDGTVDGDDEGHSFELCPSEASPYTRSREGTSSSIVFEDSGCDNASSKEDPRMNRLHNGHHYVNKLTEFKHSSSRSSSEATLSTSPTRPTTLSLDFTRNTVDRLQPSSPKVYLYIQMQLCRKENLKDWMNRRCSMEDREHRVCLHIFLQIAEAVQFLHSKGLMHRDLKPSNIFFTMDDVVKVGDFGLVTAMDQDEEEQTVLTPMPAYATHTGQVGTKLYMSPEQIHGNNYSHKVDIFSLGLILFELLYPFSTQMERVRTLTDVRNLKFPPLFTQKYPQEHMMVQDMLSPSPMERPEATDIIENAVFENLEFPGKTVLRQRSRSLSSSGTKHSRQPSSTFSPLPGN
Protocol: For virus infusions, rats were first anesthetized with Ketamine (120 mg/kg) and Xylazine (6 mg/kg) and placed into a stereotactic frame (Steolting Europe, Dublin—Ireland) (Using a 32-gauge stainless steel injector attached to a stereotactic infusion pump, rats received 1 μl of lentivirus encoding PERK shRNA or lentivirus harboring a scrambled sequence over 10 min into the insular cortex (anteroposterior, +1.2 mm relative to bregma; lateral, ±5.5 mm; ventral, −6.0 mm) according to the atlas of Paxinos, G. & Watson, C. (2006). The injector was lets in place for 5 min before and after infusion to minimize fluid retraction. The rats were allowed at least 7 days to recover from the surgery before any behavior experiments were conducted.
The rats were cannulated as described in Barki-Harrington et al. (2009). […]
The rats were separated into individual housing cages and underwent a 3-day water-restriction training session, in which once a day for 20 min, they were offered 20 ml of water from two pipettes, each containing 10 ml. […] The behavioral data are presented in terms of preference index, expressed as a percentage, [ml saccharin/(ml water plus ml saccharin)]×100, in which the quantities are those consumed during each test.

PERK [2] = target: T1, PERK; assay type: in vivo
Protocol: Briefly, the rats were anesthetized by administration of equithesin (0.3 ml/100 g), comprising 2.12% (w/v) MgSO4, 10% (v/v) ethanol, 39.1% (v/v) propyleneglycol, 0.98% (w/v) sodium pentobarbital, and 4.2% (w/v) chloral hydrate. They were restrained in a stereotactic frame (Steolting Europe, Dublin-Ireland) and stainless steel guide cannulae (23-gauge) were bilaterally implanted into the insular cortex, angled at (with reference to bregma), anteroposterior=+1.2 mm, lateral±5.5 mm, and ventral 5.0 mm (1 mm ahead of injecting cannula). Two skull screws were inserted into the skull, and acrylic dental cement was applied to secure the cannulae in position. A 28 gauge stylus was inserted into each guide cannula to prevent clogging. The rats were allowed a week in individual cages to recover from the surgery, before the experimental manipulation. PERK inhibitor GSK2606414 (Axten et al., 2012) was dissolved in DMSO and further diluted in saline to a final DMSO concentration of 0.5%. A total of 1 μl of 100 nM GSK2606414 or vehicle was infused bilaterally. For microinfusion, the stylus was removed from the guide cannula and a 28 gauge injection cannula was carefully inserted, to extend 1.0 mm beyond the tip of the guide cannula. The injection cannula was connected via PE20 tubing to a Hamilton syringe (Hamilton) driven by a CMA/100 microinjection pump (Carnegie Medicine), to provide an injection rate of 1 μl/min. After 1 min of infusion, the injection cannula was kept in the guide cannula for an additional minute to minimize dragging of infused solutes along the injection tract. Locations of cannula were verified in 30 μm coronal sections.
Aversion to the novel taste, 0.3% NaCl was measured as described below.

pyramidal CA1 neurons = test: Whole cell patch clamp recording of intrinsic neuronal properties; assay type: cell-based, mouse; conditions: vs vehicle
Protocol: Mice were sacrificed by cervical dislocation and three hundred micrometer coronal brain slices were cut with a Campden-1000 Vibrotome. Slices were cut in ice-cold cutting solution containing (in mM) 110 sucrose, 60 NaCl, 3 KCl, 1.25 NaH2PO4, 28 NaHCO3, 0.5 CaCl2, 7 MgCl2, 5 glucose, and 0.6 ascorbate and recovered for 30 min at 37° C. in artificial cerebrospinal fluid (ACSF) containing (in mM) 125 NaCl, 2.5 KCl, 1.25 NaH2PO4, 25 NaHCO3, 25 D-glucose, 2 CaCl2, and 1 MgCl2, followed by additional recovery for 30 min in room-temperature ACSF. After initial recovery, slices were placed in a submerged chamber and maintained at 34° C. in ACSF (2 ml/min). All solutions were constantly carboxygenated with 95% O2+5% CO2.
Cells infected with PERK-shRNA- or scrambled sequence PERK shRNA (PERK-Scr)-containing AAV were identified by green fluorescence. Recordings were amplified by multiclamp 700B and digitized by Digidata 1440 (Molecular Devices). The recording electrode was pulled from a borosilicate glass pipette (3-5 MΩ) using an electrode puller (P-1000; Sutter Instruments) and filled with a K-gluconate-based internal solution containing (in mM) 120 K-gluconate, 20 KCl, 10 HEPES, 2 MgCl2, 4 Na2ATP, 0.5 TrisGTP, 14 phosphocreatine, osmolarity 290 mOsm, and pH 7.3. The recording glass pipettes were patched onto the soma region of pyramidal cells. Voltages for liquid junction potential (+10 mV) were not corrected online. All current-clamp recordings were low-pass filtered at 10 kHz and sampled at 50 kHz. Series resistance was compensated and only series resistance <20 MΩ was included in the data set. Pipette capacitance was ˜99% compensated. The method for measuring active intrinsic properties was based on a modified version of Kaphzan H et al., 2013. For recordings with GSK2606414, 100 nM inhibitor was applied in the pipette solution, and recordings were performed as described above.
Resting membrane potential (RMP) was measured 5 min after the seal was ruptured. The I-V (current-voltage) relationship used to calculate number of action potentials obtained by injection of 1 s pulses (−150 to +300 pA in 50 pA increments).
Input resistance (Rin) was calculated from the voltage response to a hyperpolarizing current pulse (−150 pA). For measurements of a single AP, after initial assessment of the current, which was required to induce an action potential at 15 ms from the start of the current injection with large steps (50 pA), we injected a series of brief depolarizing currents for 10 ms in steps of 10 pA increments. The first action potential that appeared on the 5 ms time point was analyzed. A curve of dV/dt was created for that trace, and the 30 V/s point in the rising slope of the action potential was considered as threshold (Kaphzan et al., 2013).
AP amplitude was measured from the equipotential point of the threshold to the spike peak, while AP duration was measured at the point of half-amplitude of the spike. The mAHP (medium after-hyperpolarization) was measured using prolonged (3 s), high-amplitude (3 nA) somatic current injections to initiate time-locked action potential trains of 50 Hz frequency and duration (10-50 Hz, 1 or 3 s) in pyramidal cells. These action potential trains generated prolonged (˜20 s) AHPs, the amplitudes and integrals of which increased with the number of action potentials in the spike train. AHP was measured from the equipotential point of the threshold to the anti-peak of the same spike (Gulledge et al., 2013).
Series resistance, input resistance, and membrane capacitance were monitored during the entire experiment. Changes in these parameters (which were monitored throughout the entire duration of the experiment) greater than 10% were criteria for exclusion of data. AU experimental analyses were performed in a blind manner; the identity of the mouse from which neurons were recorded (PERK shRNA or scrambled) was not known to the person conducting the experiments and measurements.

Cn1cc(-c2ccc3c(c2)CCN3C(=O)Cc2cccc(C(F)(F)F)c2)c2c(N)ncnc21 [GSK2606414, 7-methyl-5-(1-{[3-(trifluoromethyl)phenyl]acetyl}-2,3-dihydro-1H-indol-5-yl)-7H-pyrrolo[2,3-d]pyrimidin-4-amine]
preference index (PERK [1]): 83%±2.2 | aversion index (CTA memory) (PERK [2]; 0.3% NaCl + 0.075 M LiCl i.p., 1 μl 100 nM into IC 20 min prior to novel taste, n=8): 72%±3.5 | extinction of CTA (PERK [2]; single injection of 100 nM into IC during CTA): not affected | total drinking volumes (PERK [2]; vs vehicle group throughout the behavioral procedure, data not shown): similar | action potential (AP) frequency (pyramidal CA1 neurons; 100 nM in pipette solution, acute hippocampal slices, increased current steps): increased | AP amplitude (pyramidal CA1 neurons; 100 nM in pipette solution): longer | AP mid width (pyramidal CA1 neurons; 100 nM in pipette solution): wider | AP threshold (pyramidal CA1 neurons; 100 nM in pipette solution): hyperpolarized | input resistance (pyramidal CA1 neurons; 100 nM in pipette solution): Neither resting membrane potential (RMP) nor input resistance was changed | resting membrane potential (RMP) (pyramidal CA1 neurons; 100 nM in pipette solution): Neither resting membrane potential (RMP) nor input resistance was changed | mAHP (pyramidal CA1 neurons; 100 nM, acute hippocampal slices): significantly reduced
